Results as given in patent US20190254997A1, “METHODS FOR INDUCING STEREOCILIA ON HAIR CELLS” (The Regents of the University of California, priority 2016, published 2019).

Legend:
[1] = test system: myosin7A-positive cells (HCs) in utricular explants; experiment: Effect of Notch inhibition (DAPT) on GM-damaged utricular explants, myosin7A immunoreactivity; format: cell-based, CD-1 mice; details: for number of myosin7A-positive cells: with or without 20 μM DAPT for 2 days then 5 days without, mean ± SD
Protocol: Effect of notch inhibition. To induce HC-like cells, two days after GM damage, we cultured utricular explants with 20 μM DAPT (N-[N-[(3,5-Difluoropheny)acetyl]-L-alanyl]L-phenylglycinetert-butyl: C23H26F2N2O4, Abcam) for 2 days, followed by 5 days without DAPT. DAPT is a prototypical y-secretase inhibitor. Since Notch signaling requires γ-secretase activity, DAPT is a potent inhibitor of this signaling pathway. As a control, we cultured GM-damaged utricles for 7 days without DAPT. Explants were analyzed for myosin7A immunoreactivity both as whole mounts and as tissue sections
Histochemical analysis. At the end of the culture period, explants were fixed for 15 min in 4% paraformaldehyde and permeabilized with 5% Triton X-100 in phosphate-buffered saline (PBS) after 3×PBS wash. Explants were then exposed to a blocking solution containing 10% bovine serum albumin (BSA), and then incubated with anti-myosin7A rabbit polyclonal antibodies (25-6790; Proteus Bioscience Inc., Ramona, Calif., USA; 1:500). Alexa-Fluor 568 goat anti-rabbit IgG (A-11011, Invitrogen, Calif., USA; 1:100) was used as the secondary antibody. At the same time, specimens were incubated in FITC-conjugated or Alexa-Fluor 633 phalloidin (1:100; Invitrogen) to label F-actin for 1 hr. Finally, the explants were incubated with DAPI for 15 min. Specimens were examined using a Leica TCS-SP2 laser-scanning confocal microscope (Leica Microsystems Inc., Wetzlar, Germany). Cells with phalloidin-positive surface structures were counted in randomly selected areas and averaged in each sample for each condition, using an evaluation reticule 100 μm on each side. Results from 6-7 samples were evaluated, based on initial observations of variability.

[2] = test system: HC stereociliary bundles and HC bodies of utricular maculae; experiment: Gentamicin damage to HC stereociliary bundles and HC bodies in utricular macula explants; format: cell-based, CD-1 mice; details: 1mM GM for 48 hrs, utricular maculae in vitro, followed to 10 days
Description: Dissection of vestibular maculae and tissue culture. Postnatal mice were decapitated under deep anesthesia and their temporal bones were removed. Utricula maculae were dissected from the surrounding tissue in 0.01M phosphate-buffered saline, pH 7.4. The otoconial membranes were gently removed with a fine needle. Explants of utricular sensory epithelia were placed intact on type I collagen-coated cover glasses (Iwaki, Tokyo, Japan) and maintained in 24-well culture plates (Iwaki) in Dulbecco's modified Eagle's medium (Invitrogen, Eugene, Oreg., USA), supplemented with 6 g/l glucose (Wako Pure Chemicals, Osaka, Japan) and 1.5 g/l penicillin G (Wako Pure Chemicals), at 37° C. in a humidified atmosphere of 95% air and 5% CO2 for 24 hrs.
In order to examine the toxicity of gentamicin (GM) to HC stereociliary bundles and HC bodies, we damaged explants with 1mM GM (Nakarai, Japan) for 48 hrs and then maintained the explants in culture without GM for 10 days. After fixation with 4% paraformaldehyde and histochemistry (see below), we counted stereociliary bundles and HC bodies. Bundles and HC bodies were measured using a 10×40 eyepiece reticule. Each square of the reticule was 100 μm on a side. Surviving hair bundles and HC bodies were counted in each of three randomly selected fields including both striolar and extrastriolar regions, and the values obtained were averaged. […]

C[C@H](NC(=O)Cc1cc(F)cc(F)c1)C(=O)N[C@H](C(=O)OC(C)(C)C)c1ccccc1 [DAPT, N-[N-[(3,5-Difluoropheny)acetyl]-L-alanyl]L-phenylglycinetert-butyl]
stereociliary bundles in DAPT-treated explants ([1]; 20 μM DAPT): remained very sparse
number of myosin7A-positive cells [1]: 38.5±8.64 /10000 μm2

gentamicin [GM]
number of HC bodies after GM treatment [2]: dramatically decreased
stereociliary bundles after GM treatment [2]: almost entirely lost
number of myosin7A-positive cells [1]: 25.4±5.5 /10000 μm2
